According to patent publication US20250353898A1, “SERPIN PEPTIDE DERIVATIVES AND METHODS OF USING THE SAME” (priority 2022, published 2025):
Positions of bridges follow the written chain, without caps; N, C: chain ends. Non-standard residues stand in square brackets, D forms with d. Residues, ends and D or L forms follow the SMILES beside them. Nle = CCCC[C@H](N)C(=O)O

What was measured:
TMPRSS2 = target: T1, TMPRSS2 (Homo sapiens, UniProt O15393); assay: cell-based; conditions: overexpressing cell system; read-out: IC50 against TMPRSS2 (converted)
T1 construct: expressed in transfected cells
T1 sequence (O15393 whole entry): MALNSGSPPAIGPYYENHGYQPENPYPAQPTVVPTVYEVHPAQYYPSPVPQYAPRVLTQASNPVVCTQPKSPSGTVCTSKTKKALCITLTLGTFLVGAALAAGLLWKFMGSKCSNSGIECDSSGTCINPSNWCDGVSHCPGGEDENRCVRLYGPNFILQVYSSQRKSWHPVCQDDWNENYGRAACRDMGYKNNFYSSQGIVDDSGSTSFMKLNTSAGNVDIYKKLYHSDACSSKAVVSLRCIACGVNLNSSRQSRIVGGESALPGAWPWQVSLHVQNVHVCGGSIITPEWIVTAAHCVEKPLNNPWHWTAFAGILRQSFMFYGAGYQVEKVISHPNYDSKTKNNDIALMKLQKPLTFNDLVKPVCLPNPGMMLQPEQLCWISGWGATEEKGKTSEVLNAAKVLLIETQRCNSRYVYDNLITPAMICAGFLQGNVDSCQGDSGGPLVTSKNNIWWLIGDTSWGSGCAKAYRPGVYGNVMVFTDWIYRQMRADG

NFκB = NFκB reporter assay (SEAP) in THP1-XBlue-MD2-CD14 cells after LPS; assay type: cell-based
Procedure: The NFκB inducible Secreted Embryonic Alkaline Phosphatase (SEAP) was measured in the supernatant and read for absorbance.
(§1) Various SERPIN peptide derivatives were screened in vitro for their ability to reduce TNFα and NFκB secretion via LRP-1 activation. The NFκB reporter cells (THP1-XBlue-MD2-CD14 cells) were treated with each peptide derivative at various concentrations, up to 100 μg/ml before being insulted with LPS (5 ng/ml) and incubated overnight. The NFκB inducible Secreted Embryonic Alkaline Phosphatase (SEAP) was measured in the supernatant and read for absorbance. IMG Microglial cells were treated with each peptide derivative at various concentrations, up to 100 μg/ml before LPS (100 ng/ml) stimulation for 24 hours. An ELISA was used to measure TNFα in the supernatant ([…]).

IL-6 = IL-6 secretion in IMG microglial cells after LPS (ELISA); assay type: cell-based; conditions: IMG microglial cells, LPS 100 ng/ml, 24 hours
TNFα = TNFα secretion in IMG microglial cells after LPS (ELISA); assay type: cell-based; conditions: FIG. 6A/7, up to 50 μg/mL, LPS 100 ng/ml 24 hours; versus SP163M, SA7
Procedure: In the NFκB reporter cells, the NFκB inducible Secreted Embryonic Alkaline Phosphatase (SEAP) was measured in the supernatant. TNFα secretion in the supernatant was measured via ELISA.
as §1

## CCCC[C@@H]1NC(=O)[C@H](CC(C)C)NC(=O)[C@H](Cc2ccccc2)NC(=O)[C@H](C(C)C)NC(=O)[C@H](Cc2ccccc2)NC(=O)[C@@H]2CCCN2C(=O)[C@@H](NC(=O)[C@H](CCCNC(=N)N)NC(=O)[C@H](CCCNC(=N)N)NC(=O)[C@H](CCCNC(=N)N)NC(C)=O)CSSC[C@@H](C(=O)O)NC1=O [SA7] (Ac-RRRCPFVFL[Nle]C-OH; disulfide 4-11)
TMPRSS2
  IC50: 57.2 nM

## Ac- RRRKFT[Nal]]LD (cyclic) [Peptide A3-7]
NFκB; NFκB reporter cells, LPS 5 ng/ml
  EC50 NFκB: 22.41 µg/mL
IL-6
  EC50 IL-6: 3.651 µg/mL

## HN-RRRFVFLAD (cyclic) (not fully specified; cyclised or stapled) [Peptide A2-3]
NFκB; FIG. 6B/7, up to 50 μg/mL, LPS 5 ng/ml 24 hours, versus SP163M, SA7
  activity in reducing NFκB activation: superior activities
TNFα
  activity in reducing TNFα: superior activities in reducing TNFα
